In brackets after ≈: the same amount, converted by molar mass.
Assays:
Test in all cases: ≥ marks a high value that may be exact or a test limit, other limits are often not marked, values filed in µg/mL are converted to µM
[1] = test system: Salmonella typhimurium KCTC 1926
[2] = test system: Enterococcus faecium
[3] = test system: Staphylococcus aureus KCTC 1621
[4] = test system: Enterococcus faecalis
[5] = test system: Pseudomonas aeruginosa KCTC 1637
[6] = test system: Bacillus subtilis KCTC 3068
[7] = test system: Enterococcus faecalis VR
[8] = test system: Enterococcus faecium VR
[9] = test system: Escherichia coli KCTC 1682
[10] = test system: Staphylococcus aureus MR
[11] = test system: Staphylococcus epidermidis KCTC 1917
[12] = test system: Staphylococcus epidermidis ATCC 12228
[13] = test system: Salmonella enterica subsp. enterica serovar Pullorum C79-13
[14] = test system: Staphylococcus aureus ATCC 25923
[15] = test system: Staphylococcus aureus ATCC 29213
[16] = test system: Salmonella enterica subsp. enterica serovar Typhi CMCC 50071
[17] = test system: Salmonella enterica subsp. enterica serovar Typhimurium C77-31
[18] = test system: Escherichia coli UB1005
[19] = test system: Salmonella enterica subsp. enterica serovar Typhimurium ATCC 14028
[20] = test system: Bacillus subtilis ATCC 6633
[21] = test system: Escherichia coli DH5alpha
[22] = test system: Staphylococcus aureus ATCC 9144
[23] = test system: Escherichia coli ATCC 10536
[24] = test system: Corynebacterium glutamicum ATCC 13032
[25] = test system: Staphylococcus aureus NCTC 8325-4
[26] = test system: Cronobacter sakazakii ATCC BAA-894
[27] = test system: Cronobacter muytjensii ATCC 51329
[28] = test system: Escherichia coli NCIMB 11843
[29] = test system: Staphylococcus aureus Newman
[30] = test system: Pseudomonas aeruginosa ATCC 27853
[31] = test system: Pseudomonas fluorescens NCIMB 9046
[32] = test system: Staphylococcus aureus RF122
[33] = test system: Staphylococcus aureus RN4220
[34] = test system: Klebsiella pneumoniae NCIMB 13218
[35] = test system: Cronobacter sakazakii DSM 4485
[36] = test system: Staphylococcus aureus SA113
[37] = test system: Cronobacter sakazakii DPC 6440
[38] = test system: Salmonella enterica subsp. enterica serovar Typhimurium LT2

With `CC[C@H](C)[C@H](NC(=O)[C@H](C)NC(=O)[C@H](CC(C)C)NC(=O)[C@H](CS)NC(=O)[C@H](Cc1cnc[nH]1)NC(=O)[C@H](C)NC(=O)[C@H](C)N)C(=O)NCC(=O)N[C@@H](CCCN=C(N)N)C(=O)N[C@@H](CCCCN)C(N)=O` [AAHCLAIGRK] the MIC [1] was 7.5 µM, the MIC [2] was 7.5 µM and the MIC [3] was 7.5 µM. The MIC [4] was 15 µM, the MIC [5] was 7.5 µM and the MIC [6] was 7.5 µM. The MIC [7] was 30 µM, the MIC [8] was 3.8 µM and the MIC [9] was 7.5 µM. It also gave an MIC [10] of 7.5 µM and an MIC [11] of 7.5 µM.
In the case of `CC(C)C[C@H](NC(=O)[C@H](CS)NC(=O)[C@H](CCCCN)NC(=O)[C@H](C)NC(=O)[C@H](C)N)C(=O)N[C@H](C(=O)N[C@@H](CCC(N)=O)C(=O)N[C@@H](CCCN=C(N)N)C(=O)N[C@@H](CCCN=C(N)N)C(=O)N[C@@H](CCCN=C(N)N)C(N)=O)C(C)C` [AAKCLVQRRR], the MIC [1] is reported as 7.5 µM (≈ 9 µg/mL), the MIC [2] is reported as 30 µM (≈ 36 µg/mL) and the MIC [3] is reported as 15 µM (≈ 18 µg/mL). For the same compound, the MIC [4] was 30 µM (≈ 36 µg/mL), the MIC [5] was 7.5 µM (≈ 9 µg/mL) and the MIC [6] was 15 µM (≈ 18 µg/mL). For the same compound, the MIC [7] was 30 µM (≈ 36 µg/mL), the MIC [8] was 30 µM (≈ 36 µg/mL) and the MIC [9] was 30 µM (≈ 36 µg/mL). The MIC [10] was 15 µM (≈ 18 µg/mL) and the MIC [11] was 7.5 µM (≈ 9 µg/mL).
`NC(=O)CC[C@H](NC(=O)[C@H](Cc1c[nH]c2ccccc12)NC(=O)[C@H](CCCN=C(N)N)NC(=O)[C@H](CCCN=C(N)N)NC(=O)[C@@H]1CCCN1C(=O)[C@@H](N)Cc1ccccc1)C(=O)N[C@@H](Cc1c[nH]c2ccccc12)C(=O)N[C@@H](CCCN=C(N)N)C(=O)N[C@@H](CCCN=C(N)N)C(=O)N1CCC[C@H]1C(=O)N[C@@H](Cc1ccccc1)C(N)=O` [FPRRWQWRRPF] was tested, and the MIC [12] was 64 µM (≈ 104 µg/mL), the MIC [13] was 16 µM (≈ 26.1 µg/mL) and the MIC [14] was 32 µM (≈ 52.2 µg/mL). For the same compound, the MIC [15] was 32 µM (≈ 52.2 µg/mL), the MIC [16] was no less than 128 µM and the MIC [17] was no less than 64 µM. The MIC [18] was 8 µM (≈ 13 µg/mL) and the MIC [19] was 32 µM (≈ 52.2 µg/mL).
With `CC[C@H](C)[C@H](NC(=O)CNC(=O)CN)C(=O)N[C@@H](CC(C)C)C(=O)N[C@H](C(=O)N[C@@H](C)C(=O)N[C@@H](CCCCN)C(=O)N[C@@H](CC(C)C)C(=O)N[C@H](C(=O)N[C@H](C(=O)N[C@H](C(=O)N[C@@H](CC(C)C)C(=O)NCC(=O)N1CCC[C@H]1C(=O)N[C@@H](C)C(=O)N[C@@H](CC(C)C)C(=O)N[C@H](C(=O)N[C@@H](CO)C(=O)N[C@@H](Cc1c[nH]c2ccccc12)C(=O)N[C@H](C(=O)N[C@@H](CCCCN)C(=O)N[C@@H](CCCN=C(N)N)C(=O)N[C@@H](CCCCN)C(=O)N[C@@H](CCCN=C(N)N)C(=O)N[C@@H](CCC(N)=O)C(=O)N[C@@H](CCC(N)=O)C(N)=O)[C@@H](C)CC)[C@@H](C)CC)[C@@H](C)O)[C@@H](C)O)C(C)C)C(C)C` [GGILVAKLVTTLGPALISWIKRKRQQ] the MIC [20] was 5.8 µM (≈ 16.5 µg/mL), the MIC [21] was 4.8 µM (≈ 13.7 µg/mL) and the MIC [22] was 5 µM (≈ 14.2 µg/mL). For the same compound, the MIC [23] was 4.7 µM (≈ 13.4 µg/mL).
With `CC[C@H](C)[C@H](NC(=O)[C@H](Cc1c[nH]c2ccccc12)NC(=O)[C@@H](N)CCCCN)C(=O)N[C@H]1CSSC[C@@H](C(=O)N[C@@H](CCCN=C(N)N)C(=O)N[C@@H](Cc2c[nH]c3ccccc23)C(=O)N[C@@H](CCCN=C(N)N)C(=O)O)NC(=O)[C@H](Cc2ccc(O)cc2)NC(=O)[C@H]([C@@H](C)O)NC(=O)[C@H]([C@@H](C)CC)NC(=O)[C@H](Cc2c[nH]c3ccccc23)NC(=O)[C@H](CCCN=C(N)N)NC(=O)CNC(=O)[C@H](CCCN=C(N)N)NC(=O)[C@H](Cc2ccc(O)cc2)NC(=O)[C@H](Cc2c[nH]c3ccccc23)NC(=O)[C@H](CC(C)C)NC(=O)[C@H](CCCN=C(N)N)NC(=O)[C@H](CCCN=C(N)N)NC1=O` [KWICRRLWYRGRWITYCRWR] the MIC [21] was 12.5 µM (≈ 35.7 µg/mL) and the MIC [24] was 0.78 µM (≈ 2.23 µg/mL).
`CC(C)C[C@H](NC(=O)[C@H](C)NC(=O)[C@@H](N)C(C)C)C(=O)N[C@@H](CC(N)=O)C(=O)N[C@@H](CCC(=O)O)C(=O)N[C@@H](CC(N)=O)C(=O)N[C@@H](CC(C)C)C(=O)N[C@@H](CC(C)C)C(=O)N[C@@H](CCCN=C(N)N)C(=O)O` [VALNENLLR] was tested, and the MIC [25] was no less than 625 µM, the MIC [26] was no less than 1250 µM and the MIC [27] was no less than 625 µM. The MIC [28] was no less than 2500 µM, the MIC [29] was no less than 1250 µM and the MIC [30] was 32 µM (≈ 33.3 µg/mL). The MIC [31] was no less than 2500 µM, the MIC [32] was no less than 1250 µM and the MIC [33] was no less than 1250 µM. It also gave an MIC [34] of no less than 2500 µM, an MIC [35] of no less than 2500 µM and an MIC [36] of no less than 1250 µM. The MIC [37] was no less than 625 µM and the MIC [38] was no less than 2500 µM.
`CC(C)C[C@H](NC(=O)[C@H](CC(N)=O)NC(=O)[C@H](CCC(=O)O)NC(=O)[C@H](CC(N)=O)NC(=O)[C@H](CC(C)C)NC(=O)[C@@H](N)C(C)C)C(=O)N[C@@H](C)C(=O)N[C@@H](CCCN=C(N)N)C(=O)O` [VLNENLAR] showed an MIC [25] of no less than 625 µM, an MIC [26] of no less than 2500 µM and an MIC [27] of no less than 2500 µM. For the same compound, the MIC [28] was no less than 1250 µM, the MIC [29] was no less than 1250 µM and the MIC [31] was no less than 1250 µM. The MIC [32] was no less than 1250 µM, the MIC [33] was no less than 1250 µM and the MIC [34] was no less than 1250 µM. The MIC [35] was no less than 2500 µM, the MIC [36] was no less than 625 µM and the MIC [37] was no less than 625 µM. The MIC [38] was no less than 2500 µM.
With `CC(C)C[C@H](NC(=O)[C@H](CC(C)C)NC(=O)[C@H](CC(N)=O)NC(=O)[C@H](CCC(=O)O)NC(=O)[C@H](CC(N)=O)NC(=O)[C@H](CC(C)C)NC(=O)[C@@H](N)C(C)C)C(=O)N[C@@H](CCCCN)C(=O)O` [VLNENLLK] the MIC [25] was no less than 1250 µM, the MIC [26] was no less than 2500 µM and the MIC [27] was no less than 1250 µM. It also gave an MIC [28] of no less than 2500 µM, an MIC [29] of no less than 1250 µM and an MIC [31] of no less than 625 µM. The MIC [32] was no less than 1250 µM, the MIC [33] was no less than 1250 µM and the MIC [34] was no less than 2500 µM. For the same compound, the MIC [35] was no less than 1250 µM, the MIC [36] was no less than 1250 µM and the MIC [37] was no less than 1250 µM. For the same compound, the MIC [38] was no less than 2500 µM.
